Results taken from paper PMC8945122 (ACS Omega, 2022).
“Also recorded” adds a separate entry of the source.

Assays:
[1] = molecular target: soluble T cell receptor P14; assay: SPR
[2] = tested on: endogenous CD8^+ T cells; conditions: mouse, in vivo; cited from earlier work
[3] = tested on: H-2D^b/peptide complexes (pMHC); design: species or system murine; conditions: for melting temperature (Tm): pH 7.4
[4] = molecular target: H-2D^b (Mus musculus, UniProt P01899); design: species or system murine
Sequence of H-2D^b (P01899 whole entry, looked up): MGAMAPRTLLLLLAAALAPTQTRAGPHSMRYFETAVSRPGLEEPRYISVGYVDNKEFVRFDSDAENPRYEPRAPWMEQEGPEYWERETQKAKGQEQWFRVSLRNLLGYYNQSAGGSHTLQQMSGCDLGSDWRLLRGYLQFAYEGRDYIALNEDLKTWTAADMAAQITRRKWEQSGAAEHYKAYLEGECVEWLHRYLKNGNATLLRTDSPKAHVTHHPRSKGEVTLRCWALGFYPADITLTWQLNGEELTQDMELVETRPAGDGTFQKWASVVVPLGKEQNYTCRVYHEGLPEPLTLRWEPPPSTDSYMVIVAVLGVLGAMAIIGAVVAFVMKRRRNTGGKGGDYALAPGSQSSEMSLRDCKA

[5] = tested on: TCR P14; assay type: binding

Substance | melting temperature (Tm) [3] | conformation of p6f / p4Y side chains and H155 [4] | distances H-2D^b W73:NH–p6:CO and H-2D^b Y156:OH–p6:NH [4] | pMHC complex formation [4] | binding by TCR P14 (in words) [5] | thermal stability of pMHC (in words) [3] | also measured
H-2D^b/gp33 (from UniProt P01887) (peptide-MHC) |  |  |  |  |  |  | Kd [1]: 6.3 µM
KAPFNFATM [V3P_Y4F] |  |  |  |  |  |  | recognition of Y4F-presenting infected cells by endogenous CD8^+ T cells [2]: efficiently restores recognition of infected cells presenting Y4F by endogenous CD8^+ T cells
KAPYNFATM [V3P] | 66.0 °C |  |  |  |  |  | 
KAPYNfATM [V3P_F6f] | 64.0 °C | prevents the H-2D^b residue H155 to rotate counter clock wise and to assume a TCR-bound-like conformation | both distances increase in comparison to the corresponding structures with the L-amino acid | does not compromise complex formation | reduced P14 affinity; also recorded: significantly reduced binding by the H-2D^b/gp33-specific TCR P14 | slight decrease in stability | 
KAVYNFATM [gp33, reference compound] | 63.5 °C |  |  |  |  |  | 
KAVYNfATM [F6f] | 61.5 °C | the side chain of p6f takes a different conformation in H-2D^b/F6f compared to H-2D^b/gp33 | both distances increase in comparison to the corresponding structures with the L-amino acid | does not compromise complex formation | reduced P14 affinity; also recorded: significantly reduced binding by the H-2D^b/gp33-specific TCR P14 | slight decrease in stability | 
